{"source": "patent US20240285637A1", "about": "“PHOSPHODIESTERASE INHIBITORS FOR THE MITIGATION OF FRAGILE X SYNDROME SYMPTOMS” (THE ROYAL INSTITUTION FOR THE ADVANCEMENT OF …, priority 2021, published 2024)", "type_in_all_cases": "cell-based, mouse", "key": {"[1]": {"tested_on": "blood vessels (capillaries) in the molecular layer of the cerebellum", "assay": "Acute slice vascular reactivity, cerebellar vermis slices (U46619 constriction, NMDA dilation)", "design": "effect on the NMDA response (vasodilation) / vasodilation (direct action on blood vessels): dose or concentration left out as unconfirmed", "details": "for vasodilation of pre-constricted blood vessels: NMDA 50 μM, 5 mins, after U46619"}, "[2]": {"tested_on": "blood vessels in the somatosensory cortex", "assay": "Acute slice vascular reactivity, somatosensory cortex", "design": "effect on the NMDA response (vasodilation) / vasodilation (direct action on blood vessels): dose or concentration left out as unconfirmed", "details": "for vasodilation of pre-constricted blood vessels: bath application of NMDA"}, "[3]": {"tested_on": "cerebellar stellate cells", "assay": "Minimal stimulation protocol, evoked IPSCs before and after HFS (failure rate of GABAergic transmission)"}, "[4]": {"tested_on": "cerebellar stellate cells", "assay": "Cell-attached recordings of action currents (intrinsic plasticity) after HFS of parallel fibers", "details": "WT stellate cells, 10 μM APV, 25 minutes after HFS", "excerpt": "Cerebellum slice preparation: Mice (P21-35) were anesthetized with isoflurane and immediately decapitated. A block of cerebellar vermis was rapidly dissected from the mouse head and submerged in an ice-cold cutting solution perfused with carbogen gas (95% O2, 5% CO2). Cutting solution contains (in mM): 235 sucrose, 2.5 KCl, 1.25 NaH2PO4, 28 NaHCO3, 0.5 CaCl2, 7 MgCl2, 28 D-glucose, 1 ascorbic acid, and 3 sodium pyruvate (pH 7.4; 305-315 mOsmol/L). The block of vermis was then fastened to a platform, transferred to the slicing chamber and again submerged in ice-cold cutting solution, bubbled with carbogen throughout the remainder of the procedure. Thin slices of cerebellar vermis (300 μm) were obtained with a vibrating tissue sectioner (Leica VT1200; Leica Instruments, Nussloch, Germany). The slices were transferred to oxygenated artificial cerebrospinal fluid (ACSF) and held at room temperature (21° C.-23° C.) for at least 1 h before recordings were performed. […]\nFor extracellular stimulations, thin walled borosilicate glass electrodes (OD 1.65 mm, ID 1.15 mm; King Precision Glass Inc, Claremont, CA, USA) were used with a tip resistance of <3 MΩ when filled with ACSF. […] To minimize variability between responses, the stimulating electrode was positioned 50-100 μm away from the recorded cell. […]"}, "[5]": {"tested_on": "middle or posterior cerebral arteries", "assay": "Vascular reactivity of isolated pressurized cerebral arteries", "details": "various concentrations, extraluminal application", "protocol": "Vascular reactivity: Middle or posterior cerebral arteries were isolated from both WT (n=9) and Fmr1-KO (n=4) mice and vessel diameter was measured using video microscopy (Living Systems Instrumental, Burlington, VT) as previously described. Blood vessels were cannulated in a closed sac preparation in 1×KREBS buffer, and gradually pressurized to 60 mmHg. Vasoconstriction was measured in response to extraluminal application of either thromboxane A2 receptor agonist U46619, NMDA, or acetylcholine (ACh) at increasing concentrations (10-9 to 10-3 mol/L, Tocris Bioscience Ellisville, MO, USA). Data is presented as a percentage change from the basal diameter."}, "[6]": {"details": "Fmr1 KO stellate cells, 10 μM external MPEP, baseline, n=7"}, "[7]": {"details": "Fmr1 KO stellate cells, 10 μM external MPEP, post-HFS, n=7"}}, "note": "Entries after “also recorded” stand apart in the source; their conditions may differ.", "data": [{"compound": "NC1=N[C@H](O)[C@H]2[C@H]3O[C@]4(O)O[C@@H]([C@@H](O)[C@@]2(N1)[C@@H]4O)[C@]3(O)CO", "note": "[tetrodotoxin]", "values": [{"measurement": "effect on NMDA-induced vasodilation", "setting": "[1]", "result": "completely blocked vasodilation"}, {"measurement": "effect on NMDA-induced vasodilation", "setting": "[2]", "result": "blocked"}]}, {"compound": "Cc1cccc(C#Cc2ccccc2)n1", "note": "[MPEP, 2-Methyl-6-(phenylethynyl)-pyridine]", "values": [{"measurement": "onset of iLTD", "setting": "[3]; Fmr1 KO stellate cells, 10 μM MPEP", "result": "prevents the onset of iLTD"}, {"measurement": "failure rate of GABAergic transmission (mean)", "setting": "[3]; [6]", "result": "77.21+/−3.75%"}, {"measurement": "time latency of synaptic events (mean)", "setting": "[3]; [6]", "result": "2.78 ± 0.24", "unit": "ms"}, {"measurement": "failure rate of GABA-evoked events (mean)", "setting": "[3]; [7]", "result": "79.98+/−4.58%"}, {"measurement": "time latency of synaptic events (mean)", "setting": "[3]; [7]", "result": "2.32 ± 0.29", "unit": "ms"}, {"measurement": "change of failure rate after HFS protocol", "setting": "[3]; α3 KO mice, MPEP, data not shown", "result": "slightly decreased their failure rate"}]}, {"compound": "N[C@H](CCCP(=O)(O)O)C(=O)O", "note": "[APV, (2R)-amino-5-phosphonovaleric acid]", "values": [{"measurement": "decrease of failure rate post-HFS", "setting": "[3]; WT mice, in the presence of APV, data not shown", "result": "~5", "unit": "%"}, {"measurement": "long-term increase in basal firing rates after HFS of PFs", "setting": "[4]", "result": "no long-term increase; also recorded: no increase in action potential firing"}]}, {"compound": "CCCCC[C@H](O)/C=C/[C@@H]1[C@@H](C/C=C\\CCCC(=O)O)[C@H]2CO[C@@H]1C2", "note": "[U46619]", "values": [{"measurement": "frequency of blood vessel constriction, Fmr1 KO brain slices compared to WT", "setting": "[1]; 75 nM", "result": "much less frequently"}, {"measurement": "vasoconstriction, Fmr1 KO brain slices compared to WT", "setting": "[1]; 150 nM", "result": "reduced vasoconstriction"}, {"measurement": "blood vessels with no response (no constriction), number", "setting": "[1]; Fmr1 KO mice, [U46619] 75 nM", "result": 2}, {"measurement": "blood vessels with response (constricted), number", "setting": "[1]; Fmr1 KO mice, [U46619] 75 nM", "result": 8}, {"measurement": "proportion of blood vessels that constricted", "setting": "[1]; Fmr1 KO mice, [U46619] 75 nM", "result": 80, "unit": "%"}, {"measurement": "blood vessels with no response (no constriction), number", "setting": "[1]; Fmr1 KO mice, [U46619] 150 nM", "result": 11}, {"measurement": "blood vessels with response (constricted), number", "setting": "[1]; Fmr1 KO mice, [U46619] 150 nM", "result": 25}, {"measurement": "proportion of blood vessels that constricted", "setting": "[1]; Fmr1 KO mice, [U46619] 150 nM", "result": 69, "unit": "%"}, {"measurement": "blood vessels with no response (no constriction), number", "setting": "[1]; WT mice, [U46619] 75 nM", "result": 3}, {"measurement": "blood vessels with response (constricted), number", "setting": "[1]; WT mice, [U46619] 75 nM", "result": 10}, {"measurement": "proportion of blood vessels that constricted", "setting": "[1]; WT mice, [U46619] 75 nM", "result": 77, "unit": "%"}, {"measurement": "blood vessels with no response (no constriction), number", "setting": "[1]; WT mice, [U46619] 150 nM", "result": 2}, {"measurement": "blood vessels with response (constricted), number", "setting": "[1]; WT mice, [U46619] 150 nM", "result": 18}, {"measurement": "proportion of blood vessels that constricted", "setting": "[1]; WT mice, [U46619] 150 nM", "result": 90, "unit": "%"}, {"measurement": "ability to vasoconstrict blood vessels, WT vs Fmr1 KO in all the conditions", "setting": "[1]; cerebellum (FIG. 5N)", "result": "similar"}, {"measurement": "ability to vasoconstrict blood vessels, WT vs Fmr1 KO in all the conditions", "setting": "[2]; cortex (FIG. 5O)", "result": "similar"}, {"measurement": "vasoconstriction of MCA/PCA, Fmr1 KO compared to WT", "setting": "[5]", "result": "reduced"}]}, {"compound": "CN[C@H](CC(=O)O)C(=O)O", "note": "[NMDA, N-methyl-D-aspartate]", "values": [{"measurement": "vasodilation of pre-constricted blood vessels", "setting": "[1]; Fmr1 KO cerebellar slices", "result": "failed to promote blood vessel dilation; also recorded: failed to induce vasodilation"}, {"measurement": "vasodilation of pre-constricted blood vessels", "setting": "[1]; WT cerebellar slices", "result": "caused vasodilation; also recorded: robust vasodilation"}, {"measurement": "vasodilation of pre-constricted blood vessels", "setting": "[2]; Fmr1 KO cortex", "result": "failed to induce vasodilation"}, {"measurement": "vasodilation of pre-constricted blood vessels", "setting": "[2]; wildtype cortical blood vessels", "result": "robust vasodilation"}]}, {"compound": "COc1ccc2c(c1)c(C1=C(c3c[nH]c4ccccc34)C(=O)NC1=O)cn2CCCN(C)C", "note": "[Gö6983]", "values": [{"measurement": "change of failure rate from baseline to post-HFS", "setting": "[3]; WT mice, kinase (PKC) inhibitor", "result": "did not change"}]}, {"compound": "COc1ccc(Cc2nccc3cc(OC)c(OC)cc23)cc1OC", "note": "[papaverine]", "values": [{"measurement": "vasodilation (direct action on blood vessels)", "setting": "[1]; Fmr1 KO cerebellum", "result": "able to induce vasodilation"}, {"measurement": "vasodilation (direct action on blood vessels)", "setting": "[2]; Fmr1 KO cortex", "result": "able to induce vasodilation"}]}, {"compound": "O=C(O)CN(CC(=O)O)c1ccccc1OCCOc1ccccc1N(CC(=O)O)CC(=O)O", "note": "[BAPTA, 1,2-bis(o-aminophenoxy)ethane-N,N,N′,N′-tetraacetic acid)]", "values": [{"measurement": "change of failure rate post-HFS", "setting": "[3]; WT mice, high BAPTA internal solution, data not shown", "result": "did not change their failure rate"}]}]}
